The results in this text go back to US20220017866A1, “PRODUCTION METHODS FOR MEGAKARYOCYTES AND PLATELETS” (KYOTO UNIVERSITY, priority 2013, published 2022).

SMILES strings stand for the structures. Where a SMILES comes first, the peptide text is derived from it. The star is where a group is joined. Cbz = O=C(OCc1ccccc1)*; CH2F = FC*

The test system of data set [1] is megakaryocytic progenitor cells. Nature of the data set: Expanding culture of c-Myc and BMI1-introduced cells with caspase inhibitor added in place of BCL-XL. It counts as cell-based, human. Conditions: 30 μM added after c-Myc and BMI1 introduction; culture for 66 days. The procedure:
In place of expressing BCL-XL, another method for controlling caspase was investigated as follows. After c-Myc and BMI1 were introduced, a caspase inhibitor, i.e., Z-VAD FMK (Merck) (10 μM or 30 μM) was added. In this condition, culture was continued for 66 days. When BCL-XL was expressed, the cells proliferated by 64 times; whereas when 30 μM of Z-VAD FMK was added, the cells proliferated by 21 times (FIG. 10). In contrast, when DMSO was used (negative control), no proliferation was observed. Furthermore, when DMSO was used, the number of Annexin V positive cells was counted. As a result, many Annexin V positive cells were present (66.5%). From this, it was confirmed that apoptosis was not suppressed.

In the next data set the test system is caspase-3/7. Nature of the data set: Caspase-3/7 activity in the presence of Shield-1. The format is cell-based, human. Conditions: Day 2.
Data set [2] deals with c-MYC-DD-2A-BMI1-introduced cells.
Protocol: (§1) Therefore, the activity of caspase-3/7 in the presence of Shield-1 was then measured.

Protocol for caspase-3/7: as §1

`COC(=O)C[C@H](NC(=O)[C@H](C)NC(=O)[C@@H](NC(=O)OCc1ccccc1)C(C)C)C(=O)CF` [Z-VAD FMK] (Cbz-Val-Ala-Asp(OMe)-CH2F) registered a cell proliferation in data set [1] of 21 times.

With `CC[C@H](C(=O)N1CCCC[C@H]1C(=O)O[C@H](CCc1ccc(OC)c(OC)c1)c1cccc(OCCN2CCOCC2)c1)c1cc(OC)c(OC)c(OC)c1` [Shield-1], the “activity of caspase-3/7” value with caspase-3/7 is “caspase was activated”. In addition, the toxic effect result in data set [2] is on record as “did not have toxic effect”. Further, the “number of megakaryocytic progenitor cells” value in data set [2] (c-MYC expression stabilized by adding Shield-1, Day 7) is listed as “decreased in volume-dependent manner”.
